Assay results taken from patent EP0110746A1, “Derivatives of 3-amino-1-phenoxy-2-propanol, their therapeutical use and process for their preparation” (LABORATOIRE L. LAFON Société anonyme dite:, priority 1982, dated 1984).

Assays:
[1] = in vivo; set-up: species or system souris; conditions: mouse, ip
Experimental: (§1) On a résumé ci-après une partie des essais qui ont été entrepris avec le CRL 41 058 (produit de l'exemple 1). Dans ces essais et sauf indications contraires, le CRL 41 058, en suspension dans une solution aqueuse de gomme arabique pour des concentrations supérieures ou égales à 3 g/1, et en solution dans de l'eau distillée pour des concentrations inférieures à 3g/l, a été administré par voie intrapéritonéale sous un volume de 20 ml/kg chez la souris mâle et de 5 ml/kg chez le rat mâle.
(§2) Chez la souris màle par voie I.P., la DL-0 (dose maximale non mortelle) est supérieure à 64 mg/kg, et la DL-30 (dose à laquelle 30% des animaux meurent) est de l'ordre de 128 mg/kg. Le CRL 41 058 est moins toxique que le chlorhydrate de 1-(3,5-diméthoxy- phénoxy)-3-tertiobutylamino-2-propanol qui a une DL-50 par voie I.P. chez la souris mâle de l'ordre de 73 mg/kg.

[2] = test system: souris mâle; experiment: in vivo; conditions: mouse, ip
Experimental: as §1, §2

[3] = test system: chiens anesthésiés au nembutal; experiment: Cardiovascular properties, anaesthetised dog, intraduodenal route; format: in vivo, chien
Experimental: Trois chiens (poids moyen : 13,6 kg) anesthésiés au nembutal reçoivent le CRL 41 058 par voie intraduodénale aux doses successives de 0,5 mg/kg, 1 mg/kg, 2,5 mg/kg, 5 mg/kg et 10 mg/kg. On mesure la pression artérielle (il est rappelé que 1 mm Hg correspond à environ 1,333 x 102 Pa), la fréquence cardiaque, le débit artériel fémoral, le débit artériel vertébral, la température rectale, et on note la coloration de la peau et la coloration de la bile recueillie par cathétérisation du cholédoque après ligature du cystique.

[4] = test system: homme; experiment: Clinical trials in man; format: in vivo; conditions: daily dose 40 à 50 mg in 2 à 3 intakes, 2 à 6 semaines
[5] = test system: tachycardie induite par isoprénaline; experiment: Anaesthetised rat: determination of the effective β-blocking dose; format: in vivo; conditions: iv, I.V., 0,03 à 0,3 µg/kg I.V. isoprénaline, read-out: dose qui bloque la tachycardie induite par isoprénaline
Experimental: Des rats normotendus sont anesthésiés au pentobarbital (75 mg/kg I.P.) et atropinés (1 mg/kg I.P.) On mesure leur pression artérielle carotidienne, leur fréquence cardiaque par intégration de la pression artérielle. Une veine jugulaire […] pour les injections. Si besoin est, l'anesthésie est entretenue par injection sous-cutanée de pentobarbital. 3 rats reçoivent le CRL 41 058 par voie intraveineuse, aux doses successives de 0,3 mg/kg, 1 mg/kg,3 mg/kg, 10 mg/kg et, éventuellement, 30 mg/kg. On détermine la dose qui bloque […] induite par 0,03 à 0,3μg/kg […] (dose nécessaire pour obtenir une augmentation de fréquence cardiaque de 30 à 50 bat/min). On trouve que la dose en question est de 1 mg/kg I.V.

[6] = test system: rats normotendus anesthésiés au pentobarbital; experiment: Anaesthetised rat: duration of the β-blocking action; format: in vivo
Experimental: Des rats normotendus sont anesthésiés au pentobarbital (75 mg/kg I.P.) et atropinés (1 mg/kg I.P.) On mesure leur pression artérielle carotidienne, leur fréquence cardiaque par intégration de la pression artérielle. Une veine jugulaire est cathétérisée pour les injections. Si besoin est, l'anesthésie est entretenue par injection sous-cutanée de pentobarbital.
5 rats reçoivent 1 mg/kg de CRL 41 058 par voie I.V. 0n observe que : • - la pression artérielle, diastolique n'est pas modifiée, elle reste voisine de 91 mm Hg; et • - la fréquence cardiaque passe, en 5 min, de 345 à 290 bat/min (soit -16%), la bradycardie maximale est obtenue au temps 20 min : 280 bat/min (soit -19%). Après 90 min, la fréquence cardiaque est à 307 bat/min (soit -11%).

[7] = Solubility in water; format: physicochemical; conditions: read-out: soluble dans l'eau
Experimental: La base libre ainsi obtenue est traitée au reflux dans de l'éthanol anhydre par de l'éthanol chlorhydrique. Il se forme un précipité que l'on isole pour recueillir 36,3 g (rendement = 69,75%) de CRL 41 058 qui se présente sous la forme d'une poudre légèrement beige soluble à 12,5 g/1 dans l'eau. Finst (Köfler) ^= 216°C.

[8] = test system: rat mâle; experiment: Global behaviour and reactivities, rat; format: in vivo
Experimental: as §1

[9] = test system: souris mâle; experiment: Global behaviour and reactivities, mouse; format: in vivo
Experimental: as §1

[10] = test system: rats génétiquement hypertendus; experiment: Awake genetically hypertensive rat: arterial pressure and heart rate; format: in vivo; conditions: 20 mg/kg V.B.
Experimental: 6 rats génétiquement hypertendus, à cathéter artériel fémoral implanté, reçoivent le CRL 41 058 à la dose de 20 mg/kg V.B.

[11] = test system: oreillettes droites isolées de cobaye; experiment: Isolated guinea pig right atria: pA2 against chronotropic effect of isoprenaline, own inotropic and chronotropic action
Source text: Sur ces oreillettes, on évalue aussi l'action inotrope et chronotrope propre du CRL 41 058; aucune moyenne n'a pu être faite, les concentrations et l'ordre d'administration des concentrations étant variables. […] Par contre, si,par exemple, la concentration de 10^-6 M est administrée après des concentrations inférieures qui ont été stimulantes, cette concentration de 10^-6 M est ino et chrono (ce phénomène pourrait laisser supposer une libération de catécholamines).

**Q.** For COc1cc(OC)cc(OCC(O)CNC(C)(C)C)c1 (stereo not shown) [chlorhydratede 1-(3,5-diméthoxy-phénoxy)-3-tertiobutylamino-2-propanol, reference compound], which LD50 [1] is on record?
**A.** ~73 mg/kg

**Q.** For COc1cc(OC)c(Cl)c(OCC(O)CNC(C)(C)C)c1 (stereo not shown) [CRL 41 058, chlorhydratede 1-(2-chloro-3,5-diméthoxyphénoxy)-3-tertiobutylamino-2-propanol], which “DL-0 (dose maximale non mortelle)” value [2] is on record?
**A.** > 64 mg/kg

**Q.** What about the “DL-30 (dose à laquelle 30% des animaux meurent)” value [2] of the same compound?
**A.** ~128 mg/kg

**Q.** What about the “effet tachycardisant de l'isoprénaline” value ([3]; 100 µg/kg isoprénaline, two dogs, after cumulative dose 19 mg/kg) of the same compound?
**A.** inférieur à l'effet tachycardisant de 0,3µg/kg d'isoprénaline témoin

**Q.** What about the minimal effective dose ([3]; Canis lupus familiaris, intraduodenal, voie intraduodénale, successive doses 0,5 to 10 mg/kg, read-out: dose bradycardisante) of the same compound?
**A.** ≥ 0.5 mg/kg

**Q.** And the “pression artérielle systolique” value ([3]; after 1 µg/kg noradrénaline, control 280 mm Hg)?
**A.** 221 mm Hg

**Q.** And the “pression artérielle diastolique” value ([3]; after 3 µg/kg isoprénaline, cumulative dose 19 mg/kg, control 48 mm Hg)?
**A.** 119 mm Hg

**Q.** What about the fréquence cardiaque ([3]; after 3 µg/kg isoprénaline, cumulative dose 19 mg/kg, control 245 bat/min) of the same compound?
**A.** 110 bat/min

**Q.** And the “coloration de la peau et celle de la bile” value ([3]; voie intraduodénale)?
**A.** ne sont pas modifiées

**Q.** And the “débit artériel vertébral” value ([3]; voie intraduodénale)?
**A.** n'est pas vasodilatateur vertébral

**Q.** What about the “températures rectale et cutanée” value ([3]; voie intraduodénale) of the same compound?
**A.** varient peu

**Q.** And the “action sur la pression artérielle” value ([3]; voie intraduodénale, from 0,5 mg/kg)?
**A.** sans aucune action nette

**Q.** What about the “augmentation du débit fémoral” value ([3]; voie intraduodénale, flow decreases in the two other dogs) of the same compound?
**A.** présente seulement chez un chien sur trois

**Q.** What about the “action β-bloquante chez l'homme” value [4] of the same compound?
**A.** confirmé chez l'homme l'intérêt de l'action β-bloquante

**Q.** What about the minimal effective dose [5] of the same compound?
**A.** 1 mg/kg

**Q.** What about the “tachycardie à l'isoprénaline” value ([6]; 0,03 µg/kg I.V. isoprénaline after 1 mg/kg I.V., 5 min) of the same compound?
**A.** totalement inhibée

**Q.** What about the “tachycardie à l'isoprénaline, part de sa valeur reprise” value ([6]; 0,03 µg/kg I.V. isoprénaline after 1 mg/kg I.V., 20 min) of the same compound?
**A.** 50%

**Q.** And the “tachycardie à l'isoprénaline, part de sa valeur restaurée” value ([6]; 0,03 µg/kg I.V. isoprénaline after 1 mg/kg I.V., 60 min)?
**A.** 92%

**Q.** What about the “variation de pression artérielle à l'isoprénaline par rapport à la variation témoin” value ([6]; 0,03 µg/kg I.V. isoprénaline after 1 mg/kg I.V., at 5 min and during 2 h) of the same compound?
**A.** -69%

**Q.** And the “variation de pression artérielle à l'isoprénaline” value ([6]; 0,03 µg/kg I.V. isoprénaline after 1 mg/kg I.V., at 5 min and during 2 h, control -26 mm Hg)?
**A.** +8 mm Hg

**Q.** And the “fréquence cardiaque, variation” value ([6]; 1 mg/kg I.V., 5 min)?
**A.** -16%

**Q.** And the fréquence cardiaque ([6]; 1 mg/kg I.V., 5 min, baseline 345)?
**A.** 290 bat/min

**Q.** And the “fréquence cardiaque (bradycardie maximale)” value ([6]; 1 mg/kg I.V., 20 min)?
**A.** 280 bat/min

**Q.** And the “fréquence cardiaque, variation (bradycardie maximale)” value ([6]; 1 mg/kg I.V., 20 min)?
**A.** -19%

**Q.** And the fréquence cardiaque ([6]; 1 mg/kg I.V., 90 min)?
**A.** 307 bat/min

**Q.** And the “fréquence cardiaque, variation” value ([6]; 1 mg/kg I.V., 90 min)?
**A.** -11%

**Q.** And the “pression artérielle diastolique” value ([6]; 1 mg/kg I.V., not modified)?
**A.** ~91 mm Hg

**Q.** And the solubility [7]?
**A.** 12.5 mg/mL

**Q.** What about the symptômes ([8]; I.P., 0,25 mg/kg, 1 mg/kg et 4 mg/kg) of the same compound?
**A.** ne provoquent pas de symptômes nets

**Q.** What about the symptômes ([8]; I.P., 16 mg/kg) of the same compound?
**A.** sédation fugace (30 min) et déprime la respiration (chez 2 animaux sur 3) pendant 30 min

**Q.** And the symptômes ([9]; I.P., 0,5 mg/kg, 2 mg/kg et 8 mg/kg)?
**A.** ne provoquent pas de symptômes nets

**Q.** And the symptômes ([9]; I.P., 32 mg/kg)?
**A.** sédation inconstante (chez 2 animaux sur 3) et fugace (30 min), une dyspnée (chez 2 animaux sur 3) pendant 15 à 30 min

**Q.** What about the fréquence cardiaque ([10]; 5 min, baseline 382) of the same compound?
**A.** 322 bat/min

**Q.** What about the “fréquence cardiaque (bradycardie maximale)” value ([10]; 2 h) of the same compound?
**A.** 305 bat/min

**Q.** And the “pression artérielle” value ([10]; 6 h, baseline 191)?
**A.** 167 mm Hg

**Q.** And the fréquence cardiaque ([10]; 7 h)?
**A.** 322 bat/min

**Q.** What about the fréquence cardiaque ([10]; 24 h) of the same compound?
**A.** 330 bat/min

**Q.** What about the “pression artérielle” value ([10]; 24 h) of the same compound?
**A.** a repris sa valeur témoin

**Q.** And the Kb ([11]; Cavia porcellus, 0.25 h, 15 min de contact, mean of 5 atria, read-out: pA2 vis-à-vis de l'effet chronotrope de l'isoprénaline (converted))?
**A.** 6.17 nM

**Q.** And the “action inotrope et chronotrope propre” value ([11]; maximum at first concentration used, 3 x 10^-8 à 10^-6 M)?
**A.** effet ino + et chrono+
